pEC50: −log10 of the molar value.

For ten compounds, EC50 results are on record in patent US9580463B2 (BRISTOL-MYERS SQUIBB COMPANY, priority 2013, dated 2017).

For the first test, the system named is HCV genotype 1b (Con1) replicon in HUH-7 cells. Description: HCV replicon luciferase reporter assay, genotype 1b. The format is cell-based. As to conditions: Hepatitis C virus, 72 h, genotype 1b replicon, 3 days incubation, read-out: LE_1b (EC50). An excerpt: An HCV replicon whole cell system was established as described by Lohmann V, Korner F, Koch J, Herian U, Theilmann L, Bartenschlager R., Science 285(5424):110-3 (1999) and modified to introduce a luciferase reporter, as first described by Krieger et al (Krieger N, Lohmann V, and Bartenschlager R, J. Virol. 75(10):4614-4624 (2001)). CDNA encoding a humanized form of the Renilla luciferase gene and a linker sequence fused directly to the 3′-end of the luciferase gene were introduced into the replicon construct using an Asc1 restriction site located in core, directly upstream of the neomycin marker gene. The adaptive mutation at position 1179 (serine to isoleucine) was also introduced (Blight K J, Kolykhalov, A A, Rice, C M, Science 290(5498):1972-1974). A stable cell line constitutively expressing this HCV replicon construct was generated by first linearizing plasmid DNAs with ScaI. RNA transcripts were synthesized in vitro using the T7 MegaScript transcription kit (Ambion, Austin, Tex.) according to manufacturer's directions. In vitro transcripts of the cDNA were transfected into the human hepatoma cell line, HUH-7. […] Resulting cell lines were characterized for positive and negative strand RNA production and protein production over time. […]
HCV replicon luciferase assays were developed to monitor the inhibitory effects of compounds described in the disclosure on HCV genotypes 1a and 1b viral replication. HUH-7 cells, constitutively expressing the HCV replicon, were grown in Dulbecco's Modified Eagle Media (DMEM) (Gibco-BRL) containing 10% Fetal calf serum (FCS) (Sigma) and 1 mg/mL G418 (Gibco-BRL). Compounds were serially diluted 3 folds in DMSO for a twenty-point titration and subsequently transferred to sterile 384-well tissue-culture treated plates (Corning cat #3571). The plates were then seeded with 50 μL of cells at a density of 3.0×10^3 cells/well in DMEM containing 4% FCS (final DMSO concentration at 0.5%). After 3 days incubation at 37° C., cells were analyzed for Renilla Luciferase activity using the EnduRen as substrate (Promega cat #E6485). The EnduRen substrate was diluted in DMEM and then added to the plates to a final concentration of 7.5 μM. The plates were incubated for 2 hrs at 37° C. and then read immediately for 30 seconds with Viewlux Imager (PerkinElmer) using a luminescence program. To assess cytotoxicity of compounds, CC50 values were generated by multiplexing the EnduRen-containing plates with Cell Titer-Blue (Promega, cat # G8082). Cell-Titer Blue (3 μL) was added to each well and incubated for 8 hrs at 37° C. The fluorescence signal from each well was read, with an excitation wavelength at 525/10 nm and an emission wavelength of 598/10 nm, using the Viewlux Imager.
The EC50 values for compounds were calculated by using a four-parameter logistic equation: y=A+((B−A)/(1+((C/x)^D))), where A and B denotes minimal and maximal % inhibition, respectively, C is the EC50, D is the hill slope and x represents compound concentration.
As to `COC[C@@H]1C[C@H](C)CC/C=C\[C@@H]2C[C@@]2(C(=O)NS(=O)(=O)C2(C)CC2)NC(=O)[C@@H]2C[C@@H](Oc3nc4cc(OC)c(F)cc4nc3C(F)(F)F)CN2C(=O)[C@H]1NC(=O)OC(C)(C)C(F)(F)F` [Compound 1048, 1,1,1-trifluoro-2-methylpropan-2-yl ((2R,6S,7R,9R,13aS,14aR,16aS,Z)-2-((6-fluoro-7-methoxy-3-(trifluoromethyl)quinoxalin-2-yl)oxy)-7-(methoxymethyl)-9-methyl-14a-(((1-methylcyclopropyl)sulfonyl)carbamoyl)-5,16-dioxo-1,2,3,5,6,7,8,9,10,11,13a,14,14a,15,16,16a-hexadecahydrocyclopropa[e]pyrrolo[1,2-a][1,4]diazacyclopentadecin-6-yl)carbamate], the negative logarithm of the EC50 (pEC50) is 9.57.

The same test, now with this note: Hepatitis C virus, 72 h, genotype 1b replicon, 3 days incubation, read-out: LE_1b (EC50, range).
On to `COC[C@@H]1C[C@@H](C)CC/C=C\[C@@H]2C[C@@]2(C(=O)NS(=O)(=O)C2(C)CC2)NC(=O)[C@@H]2C[C@@H](Oc3nc4cc(OC)c(F)cc4nc3C(F)(F)F)CN2C(=O)[C@H]1NC(=O)OC(C)(C)C` [Compound 1045, tert-butyl ((2R,6S,7R,9S,13aS,14aR,16aS,Z)-2-((6-fluoro-7-methoxy-3-(trifluoromethyl)quinoxalin-2-yl)oxy)-7-(methoxymethyl)-9-methyl-14a-(((1-methylcyclopropyl)sulfonyl)carbamoyl)-5,16-dioxo-1,2,3,5,6,7,8,9,10,11,13a,14,14a,15,16,16a-hexadecahydrocyclopropa[e]pyrrolo[1,2-a][1,4]diazacyclopentadecin-6-yl)carbamate], for which the pEC50 is 8.30 to 9.00.

As to `COC[C@@H]1C[C@@H](C)CC/C=C\[C@@H]2C[C@@]2(C(=O)NS(=O)(=O)C2(C)CC2)NC(=O)[C@@H]2C[C@@H](Oc3nc4cc(OC)c(F)cc4nc3C(F)(F)F)CN2C(=O)[C@H]1NC(=O)OC(C)(C)C(F)(F)F` [Compound 1046, 1,1,1-trifluoro-2-methylpropan-2-yl ((2R,6S,7R,9S,13aS,14aR,16aS,Z)-2-((6-fluoro-7-methoxy-3-(trifluoromethyl)quinoxalin-2-yl)oxy)-7-(methoxymethyl)-9-methyl-14a-(((1-methylcyclopropyl)sulfonyl)carbamoyl)-5,16-dioxo-1,2,3,5,6,7,8,9,10,11,13a,14,14a,15,16,16a-hexadecahydrocyclopropa[e]pyrrolo[1,2-a][1,4]diazacyclopentadecin-6-yl)carbamate], the pEC50 was 8.30 to 9.00.

On to `COC[C@@H]1C[C@H](C)CC/C=C\[C@@H]2C[C@@]2(C(=O)NS(=O)(=O)C2(C)CC2)NC(=O)[C@@H]2C[C@@H](Oc3nc4cc(OC)c(F)cc4nc3C(F)(F)F)CN2C(=O)[C@H]1NC(=O)OC(C)(C)C` [Compound 1047, tert-butyl ((2R,6S,7R,9R,13aS,14aR,16aS,Z)-2-((6-fluoro-7-methoxy-3-(trifluoromethyl)quinoxalin-2-yl)oxy)-7-(methoxymethyl)-9-methyl-14a-(((1-methylcyclopropyl)sulfonyl)carbamoyl)-5,16-dioxo-1,2,3,5,6,7,8,9,10,11,13a,14,14a,15,16,16a-hexadecahydrocyclopropa[e]pyrrolo[1,2-a][1,4]diazacyclopentadecin-6-yl)carbamate], for which the pEC50 is 9.00 to 9.29.

Take `COC[C@@H]1C[C@H](C)CC/C=C\[C@@H]2C[C@@]2(C(=O)NS(=O)(=O)C2(C)CC2)NC(=O)[C@@H]2C[C@@H](Oc3nc4cc(OC)c(F)cc4nc3C(F)(F)F)CN2C(=O)[C@H]1NC(=O)OC(C)(C)C(F)(F)F` [Compound 1048, 1,1,1-trifluoro-2-methylpropan-2-yl ((2R,6S,7R,9R,13aS,14aR,16aS,Z)-2-((6-fluoro-7-methoxy-3-(trifluoromethyl)quinoxalin-2-yl)oxy)-7-(methoxymethyl)-9-methyl-14a-(((1-methylcyclopropyl)sulfonyl)carbamoyl)-5,16-dioxo-1,2,3,5,6,7,8,9,10,11,13a,14,14a,15,16,16a-hexadecahydrocyclopropa[e]pyrrolo[1,2-a][1,4]diazacyclopentadecin-6-yl)carbamate]: the pEC50 was 9.30 to 10.00.

As to `CCOc1ccc2nc(C(F)(F)F)c(O[C@@H]3C[C@H]4C(=O)N[C@]5(C(=O)NS(=O)(=O)C6(C)CC6)C[C@H]5/C=C\CC[C@H](C)C[C@@H](COC)[C@H](NC(=O)OC(C)(C)C)C(=O)N4C3)nc2c1` [Compound 1049, tert-butyl ((2R,6S,7R,9S,13aS,14aR,16aS,Z)-2-((7-ethoxy-3-(trifluoromethyl)quinoxalin-2-yl)oxy)-7-(methoxymethyl)-9-methyl-14a-(((1-methylcyclopropyl)sulfonyl)carbamoyl)-5,16-dioxo-1,2,3,5,6,7,8,9,10,11,13a,14,14a,15,16,16a-hexadecahydrocyclopropa[e]pyrrolo[1,2-a][1,4]diazacyclopentadecin-6-yl)carbamate], the pEC50 is 8.30 to 9.00.

On to `CCOc1ccc2nc(C(F)(F)F)c(O[C@@H]3C[C@H]4C(=O)N[C@]5(C(=O)NS(=O)(=O)C6(C)CC6)C[C@H]5/C=C\CC[C@@H](C)C[C@@H](COC)[C@H](NC(=O)OC(C)(C)C)C(=O)N4C3)nc2c1` [Compound 1050, tert-butyl ((2R,6S,7R,9R,13aS,14aR,16aS,Z)-2-((7-ethoxy-3-(trifluoromethyl)quinoxalin-2-yl)oxy)-7-(methoxymethyl)-9-methyl-14a-(((1-methylcyclopropyl)sulfonyl)carbamoyl)-5,16-dioxo-1,2,3,5,6,7,8,9,10,11,13a,14,14a,15,16,16a-hexadecahydrocyclopropa[e]pyrrolo[1,2-a][1,4]diazacyclopentadecin-6-yl)carbamate], for which the pEC50 is 9.30 to 10.00.

Regarding `CCOc1ccc2nc(C(F)(F)F)c(O[C@@H]3C[C@H]4C(=O)N[C@]5(C(=O)NS(=O)(=O)C6(C)CC6)C[C@H]5/C=C\CC[C@H](C)C[C@@H](COC)[C@H](NC(=O)OC(C)(C)C(C)(F)F)C(=O)N4C3)nc2c1` [Compound 1051, 3,3-difluoro-2-methylbutan-2-yl ((2R,6S,7R,9S,13aS,14aR,16aS,Z)-2-((7-ethoxy-3-(trifluoromethyl)quinoxalin-2-yl)oxy)-7-(methoxymethyl)-9-methyl-14a-(((1-methylcyclopropyl)sulfonyl)carbamoyl)-5,16-dioxo-1,2,3,5,6,7,8,9,10,11,13a,14,14a,15,16,16a-hexadecahydrocyclopropa[e]pyrrolo[1,2-a][1,4]diazacyclopentadecin-6-yl)carbamate], the pEC50 is 8.30 to 9.00.

Regarding `CCOc1ccc2nc(C(F)(F)F)c(O[C@@H]3C[C@H]4C(=O)N[C@]5(C(=O)NS(=O)(=O)C6(C)CC6)C[C@H]5/C=C\CC[C@@H](C)C[C@@H](COC)[C@H](NC(=O)OC(C)(C)C(C)(F)F)C(=O)N4C3)nc2c1` [Compound 1052, 3,3-difluoro-2-methylbutan-2-yl ((2R,6S,7R,9R,13aS,14aR,16aS,Z)-2-((7-ethoxy-3-(trifluoromethyl)quinoxalin-2-yl)oxy)-7-(methoxymethyl)-9-methyl-14a-(((1-methylcyclopropyl)sulfonyl)carbamoyl)-5,16-dioxo-1,2,3,5,6,7,8,9,10,11,13a,14,14a,15,16,16a-hexadecahydrocyclopropa[e]pyrrolo[1,2-a][1,4]diazacyclopentadecin-6-yl)carbamate], the pEC50 is 9.30 to 10.00.

As to `CCOc1ccc2nc(C(F)(F)F)c(O[C@@H]3C[C@H]4C(=O)N[C@]5(C(=O)NS(=O)(=O)C6(C)CC6)C[C@H]5/C=C\CC[C@H](C)C[C@@H](COC)[C@H](NC(=O)OC(C)(C)C(F)(F)F)C(=O)N4C3)nc2c1` [Compound 1053, 1,1,1-trifluoro-2-methylpropan-2-yl ((2R,6S,7R,9S,13aS,14aR,16aS,Z)-2-((7-ethoxy-3-(trifluoromethyl)quinoxalin-2-yl)oxy)-7-(methoxymethyl)-9-methyl-14a-(((1-methylcyclopropyl)sulfonyl)carbamoyl)-5,16-dioxo-1,2,3,5,6,7,8,9,10,11,13a,14,14a,15,16,16a-hexadecahydrocyclopropa[e]pyrrolo[1,2-a][1,4]diazacyclopentadecin-6-yl)carbamate], the pEC50 is 8.30 to 9.00.

Turning to `CCOc1ccc2nc(C(F)(F)F)c(O[C@@H]3C[C@H]4C(=O)N[C@]5(C(=O)NS(=O)(=O)C6(C)CC6)C[C@H]5/C=C\CC[C@@H](C)C[C@@H](COC)[C@H](NC(=O)OC(C)(C)C(F)(F)F)C(=O)N4C3)nc2c1` [Compound 1054, 1,1,1-trifluoro-2-methylpropan-2-yl ((2R,6S,7R,9R,13aS,14aR,16aS,Z)-2-((7-ethoxy-3-(trifluoromethyl)quinoxalin-2-yl)oxy)-7-(methoxymethyl)-9-methyl-14a-(((1-methylcyclopropyl)sulfonyl)carbamoyl)-5,16-dioxo-1,2,3,5,6,7,8,9,10,11,13a,14,14a,15,16,16a-hexadecahydrocyclopropa[e]pyrrolo[1,2-a][1,4]diazacyclopentadecin-6-yl)carbamate], the pEC50 is 9.30 to 10.00.
